Reference: US10457710B2, “Antimicrobial peptides, their variants and uses” (priority 2015, dated 2019)
Where a SMILES comes first, the peptide text is derived from it. [ ]: non-standard residue; d: D form.

Tests used:
Assay type in all cases: cell-based
[1] = test system: clinical strains of Serratia marcescens; assay: MIC, microdilution, clinical strains; conditions: 0.02% BSA, 0.2% acetic acid
How it was run: (§1)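 MIC = lowest peptide concentration without visual growth after 20–24 h at 37° C. Range 0.125–128 μg/ml, inoculum 5.0×10^5 cfu/ml, microdilution format. Antifungal tests used potato dextrose broth; bacterial tests used MH broth.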

[2] = test system: clinical strains of E. coli; assay: MIC, microdilution, clinical strains; conditions: microdilution, Muller Hinton broth-cation adjusted, 0.02% BSA, 0.2% acetic acid
How it was run: as §1

[3] = test system: clinical strains of S. aureus; assay: MIC, microdilution, clinical strains; conditions: 0.02% BSA, 0.2% acetic acid
How it was run: as §1

[4] = test system: clinical strains of S. pneumoniae; assay: MIC, microdilution, clinical strains; conditions: 0.02% BSA, 0.2% acetic acid
How it was run: as §1

[5] = test system: clinical strains of Proteus mirabilis; assay: MIC, microdilution, clinical strains; conditions: 0.02% BSA, 0.2% acetic acid
How it was run: as §1

[6] = test system: clinical strains of P. aeruginosa; assay: MIC, microdilution, clinical strains; conditions: 0.02% BSA, 0.2% acetic acid
How it was run: as §1

[7] = test system: clinical strains of K. pneumoniae; assay: MIC, microdilution, clinical strains; conditions: 0.02% BSA, 0.2% acetic acid
How it was run: as §1

[8] = test system: clinical strains of E. cloacae; assay: MIC, microdilution, clinical strains; conditions: 0.02% BSA, 0.2% acetic acid
How it was run: as §1

[9] = test system: C. quillermondiae; assay: MIC, clinical yeast strains; parameters: Minimum inhibitory concentration: unit: μg/ml; conditions: C. quillermondiae clinical yeast strain 1
How it was run: (§2)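 For A. johnsonii, Mueller Hinton broth; for the clinical yeasts, Potato dextrose broth. In both, 5.0×10^5 cfu/ml was exposed to peptide over 0.125–128 μg/ml for 20–24 h at 37 °C, and MIC was read as the lowest concentration showing no visual growth.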

[10] = test system: Candida albicans; assay: MIC, clinical yeast strains
How it was run: as §2

[11] = test system: C. glabrata; assay: MIC, clinical yeast strains
How it was run: as §2

[12] = test system: C. parapsilosis; assay: MIC, clinical yeast strains
How it was run: as §2

## CC(C)C[C@@H](NC(=O)[C@@H](CCCCN)NC(=O)[C@@H](CCCCN)NC(=O)[C@@H](Cc1ccccc1)NC(=O)[C@@H](CC(C)C)NC(=O)[C@@H](Cc1c[nH]c2ccccc12)NC(=O)[C@@H](CCCNC(=N)N)NC(=O)[C@@H](Cc1c[nH]c2ccccc12)NC(=O)[C@@H](CCCCN)NC(=O)[C@@H](CCCNC(=N)N)NC(=O)[C@H](N)CCCCN)C(=O)O [Chain310D] (H-[dK][dR][dK][dW][dR][dW][dL][dF][dK][dK][dL]-OH)
[1]; Serratia marcescens strain 1, Muller Hinton broth-cation adjusted
  Minimum inhibitory concentration: >128
[1]; Serratia marcescens strain 2, Muller Hinton broth-cation adjusted
  Minimum inhibitory concentration: >128
[1]; Serratia marcescens strain 3, Muller Hinton broth-cation adjusted
  Minimum inhibitory concentration: >128
[1]; Serratia marcescens strain 4, Muller Hinton broth-cation adjusted
  Minimum inhibitory concentration: >128
[1]; Serratia marcescens strain 5, Muller Hinton broth-cation adjusted
  Minimum inhibitory concentration: >128
[2]; Escherichia coli strain 1
  Minimum inhibitory concentration: 4
[2]; Escherichia coli strain 2
  Minimum inhibitory concentration: 32
[2]; Escherichia coli strain 3
  Minimum inhibitory concentration: 16
[2]; Escherichia coli strain 4
  Minimum inhibitory concentration: 16
[2]; Escherichia coli strain 5
  Minimum inhibitory concentration: 16
[3]; Staphylococcus aureus strain 1, Muller Hinton broth-cation adjusted
  Minimum inhibitory concentration: 8
[3]; Staphylococcus aureus strain 2, Muller Hinton broth-cation adjusted
  Minimum inhibitory concentration: 16
[3]; Staphylococcus aureus strain 3, Muller Hinton broth-cation adjusted
  Minimum inhibitory concentration: 8
[3]; Staphylococcus aureus strain 4, Muller Hinton broth-cation adjusted
  Minimum inhibitory concentration: 8
[3]; Staphylococcus aureus strain 5, Muller Hinton broth-cation adjusted
  Minimum inhibitory concentration: 4
[4]; Streptococcus pneumoniae strain 1, Muller Hinton broth-cation adjusted
  Minimum inhibitory concentration: 128
[4]; Streptococcus pneumoniae strain 2, Muller Hinton broth-cation adjusted
  Minimum inhibitory concentration: 128
[4]; Streptococcus pneumoniae strain 3, Muller Hinton broth-cation adjusted
  Minimum inhibitory concentration: 128
[4]; Streptococcus pneumoniae strain 4, Muller Hinton broth-cation adjusted
  Minimum inhibitory concentration: 128
[4]; Streptococcus pneumoniae strain 5, Muller Hinton broth-cation adjusted
  Minimum inhibitory concentration: 64
[5]; Proteus mirabilis strain 1, Muller Hinton broth-cation adjusted
  Minimum inhibitory concentration: >128
[5]; Proteus mirabilis strain 2, Muller Hinton broth-cation adjusted
  Minimum inhibitory concentration: >128
[5]; Proteus mirabilis strain 3, Muller Hinton broth-cation adjusted
  Minimum inhibitory concentration: >128
[5]; Proteus mirabilis strain 4, Muller Hinton broth-cation adjusted
  Minimum inhibitory concentration: >128
[5]; Proteus mirabilis strain 5, Muller Hinton broth-cation adjusted
  Minimum inhibitory concentration: >128
[6]; Pseudomonas aeruginosa strain 1, Muller Hinton broth-cation adjusted
  Minimum inhibitory concentration: 8
[6]; Pseudomonas aeruginosa strain 2, Muller Hinton broth-cation adjusted
  Minimum inhibitory concentration: 16
[6]; Pseudomonas aeruginosa strain 3, Muller Hinton broth-cation adjusted
  Minimum inhibitory concentration: 16
[6]; Pseudomonas aeruginosa strain 4, Muller Hinton broth-cation adjusted
  Minimum inhibitory concentration: 8
[6]; Pseudomonas aeruginosa strain 5, Muller Hinton broth-cation adjusted
  Minimum inhibitory concentration: 4
[7]; Klebsiella pneumoniae strain 1, Muller Hinton broth-cation adjusted
  Minimum inhibitory concentration: 64
[7]; Klebsiella pneumoniae strain 2, Muller Hinton broth-cation adjusted
  Minimum inhibitory concentration: 64
[7]; Klebsiella pneumoniae strain 3, Muller Hinton broth-cation adjusted
  Minimum inhibitory concentration: 128
[7]; Klebsiella pneumoniae strain 4, Muller Hinton broth-cation adjusted
  Minimum inhibitory concentration: 64
[7]; Klebsiella pneumoniae strain 5, Muller Hinton broth-cation adjusted
  Minimum inhibitory concentration: 32
[8]; Enterobacter cloacae strain 1, Muller Hinton broth-cation adjusted
  Minimum inhibitory concentration: 128
[8]; Enterobacter cloacae strain 2, Muller Hinton broth-cation adjusted
  Minimum inhibitory concentration: 64
[8]; Enterobacter cloacae strain 3, Muller Hinton broth-cation adjusted
  Minimum inhibitory concentration: 16
[8]; Enterobacter cloacae strain 4, Muller Hinton broth-cation adjusted
  Minimum inhibitory concentration: 8
[8]; Enterobacter cloacae strain 5, Muller Hinton broth-cation adjusted
  Minimum inhibitory concentration: 16
[9]
  Minimum inhibitory concentration: 8
[10]; Candida albicans clinical yeast strain 1
  Minimum inhibitory concentration: 16
[10]; Candida albicans clinical yeast strain 2
  Minimum inhibitory concentration: 16
[10]; Candida albicans clinical yeast strain 3
  Minimum inhibitory concentration: 16
[10]; Candida albicans clinical yeast strain 4
  Minimum inhibitory concentration: 16
[10]; Candida albicans clinical yeast strain 5
  Minimum inhibitory concentration: 16
[11]; C. glabrata clinical yeast strain 1
  Minimum inhibitory concentration: 16
[11]; C. glabrata clinical yeast strain 2
  Minimum inhibitory concentration: 16
[11]; C. glabrata clinical yeast strain 3
  Minimum inhibitory concentration: 128
[11]; C. glabrata clinical yeast strain 4
  Minimum inhibitory concentration: 128
[12]; C. parapsilosis clinical yeast strain 1
  Minimum inhibitory concentration: 64
[12]; C. parapsilosis clinical yeast strain 2
  Minimum inhibitory concentration: 64
[12]; C. parapsilosis clinical yeast strain 3
  Minimum inhibitory concentration: 64
[12]; C. parapsilosis clinical yeast strain 4
  Minimum inhibitory concentration: 16
